# Measured values taken from patent US4517002A (priority 1983, dated 1985).
# How the values were obtained:
# urease [1] = type: biochemical; conditions: pH 7.2
# urease [2] = type: biochemical; conditions: pH 5.4
Structure (SMILES),% Inhibition Cazenovia Soil (urease [1]) [%],% Inhibition Wisconsin Soil (urease [2]) [%]
NP(N)(=O)OCC(F)(F)F [Experiment 1],97,90
NP(N)(=O)OCC(Cl)(Cl)Cl [Experiment 2],97,87
NP(N)(=O)OCCBr [Experiment 3],85,–
NP(N)(=O)OCCCl [Experiment 4],84,–
C=CCOP(N)(N)=O [Experiment 6],65,38
NP(N)(=O)OCc1ccccc1 [Experiment 7],69,20
NP(N)(=O)OCCCCl [Experiment 8],41,22
COP(N)(N)=O [Experiment 9],34,–
CCCOP(N)(N)=O [Experiment 10],15,–
NP(N)(=O)OC1CCCCC1 [Experiment 11],85,–
NP(N)(=O)OC1C(Cl)(Cl)CCCC1(Cl)Cl [Experiment 12],38,–
